# Assays:
# [1] = biological target: Prp8 intein (Cryptococcus gattii, UniProt E6R027); test: Split Renilla luciferase RLuc-Prp8 intein splicing assay; type: biochemical; conditions: compound at 20 μM
# [2] = In vivo toxicity studies in adult BALB/c mice
# Procedure: Mouse 1: Oral, VC—125 ul of formulation without drug is given per mouse by oral gavage
# Mouse 3: IP, VC—60 ul of the formulation without the drug is injected intraperitoneally
# A total of 5 doses were given (one/day). Weight, posture, movement, activity, paralysis, seizure, and fur nature were monitored in the morning and evening.
# Chain of Prp8 intein (E6R027 entry or part of it): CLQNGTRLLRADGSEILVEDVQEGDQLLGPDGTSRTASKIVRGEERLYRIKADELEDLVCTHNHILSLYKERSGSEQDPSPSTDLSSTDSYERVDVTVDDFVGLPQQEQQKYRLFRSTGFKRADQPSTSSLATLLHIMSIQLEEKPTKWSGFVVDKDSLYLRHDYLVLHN
smiles,measurement,setting,value
"O=C(Nc1ccc(F)cc1)c1nnsc1S(=O)(=O)c1ccc(Cl)cc1 [6G-318S, 5-[(4-chlorophenyl)sulfonyl]-N-(4-fluorophenyl)-1,2,3-thiadiazole-4-carboxamide]",suppression of RLuc-Prp8 intein splicing activity,[1],greater than 50%
same,observed condition of mouse,[2]; 50 mg/kg intraperitoneally,died on day 2
same,"dose with no observed toxicity / safe dose, oral","[2]; mouse, in vivo, po, 5 days",200 mg/kg
